Experimental data as given in patent publication US6355665B1, “1H-4(5)-substituted imidazole derivatives, their preparation and their use as histamine H3 receptor ligands” (James Black Foundation Limited, priority 1997, dated 2002).

Experiments:
Histamine H3 receptor [1] = molecular target: T1, Histamine H3 receptor (Cavia porcellus, UniProt Q9JI35); assay: Histamine H3 radioligand binding assay, guinea pig cortex ([3H]-R-α-methylhistamine); set-up: The cortex was dissected, weighed and homogenised in ice-cold 20 mM Hepes-NaOH buffer; from tissue; host or cells: guinea pig cerebral cortex membranes; details: guinea pig cortex membranes; [3H]-R-α-methylhistamine 0.1 nM; typical variance ±0.12 log units; read-out: pKI (binding assay) - cortex (converted)
Method: Histamine H3 Radioligand Binding Assay—Guinea Pig Cortex
Male Dunkin Hartley guinea pigs (200-300 g) were used. The whole brain was removed and immediately placed in ice-cold 20 mM Hepes-NaOH buffer (pH7.4 at 21±3° C.). The cortex was dissected, weighed and homogenised in ice-cold 20 mM Hepes-NaOH buffer (pH7.4 at 21±3° C.) (50 ml/guinea-pig cortex) using a polytron (Kinematica AG; PT-DA 3020/2TS, 3×3 s). The homogenate was centrifuged at 100×g for 5 min and the supernatants pooled and stored at 4° C. The pellets were rehomogenised in fresh ice-cold buffer (80 ml) and recentrifuged (100×g for 5 min). The supernatants were pooled and pellets rehomogenised and recentrifuged (100×g for 5 min). All supernatants were pooled and centrifuged at 39,800×g for 12 min at 4° C. The final pellet was resuspended in 20 mM Hepes-NaOH buffer (pH7.4 at 21±3° C.) to a tissue concentration of 7.5 mg.ml^−1, using a teflon-in-glass homogeniser.
Incubation Conditions and Data Analysis
These were essentially identical to those used for the guinea pig ileum myenteric plexus assay described above, except that the final assay concentration of [^3H]-R-α-methylhistamine was 0.1 nM. Typical variance in this assay is ±0.12 log units.

Histamine H3 receptor [2] = molecular target: T1, Histamine H3 receptor; assay: ileal longitudinal muscle, myenteric plexus functional assay (rightward shift of R-(α)-methylhistamine E/[A] curves, Schild); assay type: cell-based; set-up: the longitudinal muscle layer and adhering myenteric plexus was teased away; from tissue; host or cells: guinea pig ileal longitudinal muscle with myenteric plexus (organ bath); details: guinea pig ileum longitudinal muscle myenteric plexus, electrically stimulated; antagonism of R-(α)-methylhistamine; typical variance ±0.15 log units; read-out: pKB (functional assay) - ileum (converted)
Method: The biological activity of the compounds of the examples was measured using the ileal longitudinal muscle, myenteric plexus assay described by Paton and Aboo Zar (J. Physiol. 1968, 194, 13-33). Male Dunkin-Hartley guinea pigs (250-300 g) were employed. Briefly, a 50 cm portion of ileum proximal to the caecum was removed, after discarding the terminal 20 cm. Ileal segments (3 cm) were cleaned by passing Krebs-Henseleit buffer containing 3 μM mepyramine gently through the ileum using a Pasteur pipette (size: 13.8 cm length, 0.65 cm diameter). To avoid unnecessary damage to the tissue, Krebs-Henseleit buffer was passed through the ileal segment, while it was lying horizontally on a petri dish. Therefore, the ileum was not over-distended and the buffer flowed through with ease. Each segment was then passed over a Pasteur pipette and the longitudinal muscle layer and adhering myenteric plexus was teased away using moist cotton wool, by stroking tangentially away from the mesenteric attachment. The tissues were suspended in 20 ml organ baths containing Krebs-Henseleit buffer at 37±1° C. and gassed with 95% CO2/5% O2. The tissues were ligated to two parallel stainless steel wires, situated between two platinum electrodes (0.76 cm length, 0.06 cm diameter). All measurements were recorded isometrically (Grass FTO3 transducer). Following an initial loading tension of 1 g, the tissues were stimulated with electrical pulses at a frequency of 0.1 Hz and a pulse duration of 0.5 msec, as described by Kosterlitz & Watt (Br. J. Pharmacol. 1968, 266-276). Initially, the tissues were stimulated at supramaximal (1.3 fold times maximal) voltage for a period of 30 min and then the tissues were washed and re-stimulated. A “sighter dose” of the selective histamine H3-receptor agonist, R-(α)-methylhistamine (0.3 μM) (Arrang et al. Nature, 1987, 117-123), was administered. Upon generation of response, the “sighter dose” was removed from the tissues by “washout” (6 washes over 60 min) and during this period the electrical stimulation was switched off. The tissues were then re-stimulated and allowed to stabilise prior to the addition of drug treatments, which were allocated on a randomised block basis to the organ baths. Following the incubation period, a single cumulative E/[A] curve was obtained. The experimental E/[A] curve data was expressed as the percentage inhibition of the peak height of electrically-stimulated contraction. Antagonist affinity values were calculated from the degree of rightward shift of the R-(α)-methylhistamine E/[A] curves using Schild's methods (Arunlakshana & Schild Br. J. Pharmacol. 1959, 48-58). Typical variance in this assay is ±0.15 log units.

Histamine H3 receptor [3] = molecular target: T1, Histamine H3 receptor; assay: Histamine H3 radioligand binding assay, guinea pig ileum ([3H]-R-α-methylhistamine); set-up: The cortex was dissected, weighed and homogenised in ice-cold 20 mM Hepes-NaOH buffer; from tissue; host or cells: guinea pig cerebral cortex membranes; details: guinea pig ileum longitudinal muscle myenteric plexus membranes; [3H]-R-α-methylhistamine 3 nM; typical variance ±0.12 log units; read-out: pKI (binding assay) - ileum (converted)
Method: Histamine H3 Radioligand Binding Assay—Guinea Pig Ileum
Male Dunkin Hartley guinea pigs (200-300 g) were used. The small intestine was rapidly removed (cut ^˜5 cm from caecum and 5 cm from stomach) and placed in ice-cold 20 mM Hepes-NaOH buffer (pH7.4 at 21±3° C.). The tissue was cut into ^˜10 cm segments, flushed through with ice-cold 20 mM Hepes-NaOH buffer and placed in a beaker containing fresh buffer at 4° C. 10 cm segments of ileum were threaded onto a glass pipette and the longitudinal muscle myenteric plexus was peeled away from the circular muscle using damp cotton-wool. Longitudinal muscle myenteric plexus was immediately placed in ice-cold Viaspan® solution (^˜100 ml for tissue from 3 guinea pigs) and placed in the refrigerator for 24 hours.
Pre-soaked tissue was weighed and minced with scissors. The tissue was then homogenised in Viaspan® using a polytron (Kinematica AG; PT-DA 3020/2TS, 3×^˜1-2 s). 50 ml of 500 mM Tris HCl (pH6.9 at 21±3° C.) was added to the tissue and the mixture centrifuged at 39,800×g for 12 min at 4° C. The supernatant was discarded and rehomogenised in 100 ml ice-cold 20 mM Hepes-NaOH buffer (pH7.4 at 21±3° C.) using a teflon-in-glass homogeniser (setting 10; 3×). The homogenate was recentrifuged at 39,800×g and the pellet resuspended in 20 mM Hepes-NaOH buffer (pH7.4 at 21±3° C.), to a tissue concentration of 50 mg.ml^−1, using a polytron (Brinkman, PT10, 3×^˜1 s).
Guinea pig ileum longitudinal muscle myenteric plexus membranes (400 μl) were incubated for 165 min at 21±3° C. in a final volume of 500 μl with 20 mM Hepes-NaOH buffer containing [^3H]-R-α-methylhistamine (50 μl; 3 nM) and competing compound. Total and non-specific binding of [^3H]-R-α-methylhistamine were defined using 50 μl of buffer and 50 μl of 10 μM thioperamide, respectively. The assay was terminated by rapid filtration through Whatman GF/B filters, presoaked (2 hr) in 0.1% polyethyleneimine, using a Brandell Cell Harvester. The filters were washed (3×3 ml) with ice-cold 50 mM Tris-HCl (pH6.9 at 21±3° C.), transferred into scintillation vials, 5 ml liquid scintillation cocktail was added and after 4 hours the bound radioactivity was determined by counting (4 min) in a Beckman liquid scintillation counter.
Data are analysed using GraphPad prism and the general equation for a competition curve with variable Hill slope (nH). [formula]
X is the log concentration of competing compound,
Y is the binding obtained at each concentration of X,
pIC50 is the […] required to compete for half of the specific binding.
The IC50 is converted to the K1 using the Cheng Prusoff equation,
IC50 is the concentration of competitor required to compete for half the specific binding,
L is the radioligand concentration used,
KD is the equilibrium dissociation constant for the radioligand determined by saturation experiments.
Typical variance in this assay is ±0.12 log units.

T1 sequence (Q9JI35 whole entry): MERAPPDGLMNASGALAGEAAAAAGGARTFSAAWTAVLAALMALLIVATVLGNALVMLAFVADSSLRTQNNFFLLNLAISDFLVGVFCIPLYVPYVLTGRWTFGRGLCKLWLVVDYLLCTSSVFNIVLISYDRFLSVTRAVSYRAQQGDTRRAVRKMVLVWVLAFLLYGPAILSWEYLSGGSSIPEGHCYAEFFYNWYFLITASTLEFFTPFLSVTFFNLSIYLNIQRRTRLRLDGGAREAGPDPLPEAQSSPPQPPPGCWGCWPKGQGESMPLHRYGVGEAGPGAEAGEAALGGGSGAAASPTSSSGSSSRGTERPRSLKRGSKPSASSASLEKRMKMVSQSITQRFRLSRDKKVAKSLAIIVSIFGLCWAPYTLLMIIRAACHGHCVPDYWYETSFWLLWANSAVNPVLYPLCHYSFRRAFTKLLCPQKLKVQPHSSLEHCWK

Row | Ki (Histamine H3 receptor [1]) [nM] | Kb (Histamine H3 receptor [2]) [nM] | Ki (Histamine H3 receptor [3]) [nM] | Structure (SMILES)
1 | 2.63 | 3.47 | 1.86 | O=S(=O)(CCCCCc1c[nH]cn1)NCc1ccc(Cl)cc1 [Example 5, N-(4-Chlorobenzyl)-5-(1H-imidazol-4-yl)-1-pentanesulfonamide]
2 | 14.1 | 49 | 60.3 | O=S(=O)(CC(O)CCCc1c[nH]cn1)NCCc1ccc(Cl)cc1 (centres unmarked) [Example 12, N-(4-Chlorophenethyl)-2-hydroxy-5-(1H-imidazol-4-yl)-1-pentanesulfonamide]
3 | 2.88 | 5.13 |  | O=S(=O)(CCCCCCc1c[nH]cn1)NCc1ccc(Cl)cc1 [Example 7, N-(4-Chlorobenzyl)-6-(1H-imidazol-4-yl)-1-hexanesulfonamide]
4 | 5.01 | 16.2 | 12.6 | O=S(=O)(CC(O)CCCc1c[nH]cn1)NCc1ccc(Cl)cc1 (centres unmarked) [Example 6, N-(4-Chlorobenzyl)-2-hydroxy-5-(1H-imidazol-4-yl)-1-pentanesulfonamide]
5 | 4.27 | 12.6 |  | O=S(=O)(CC(O)CCCCc1c[nH]cn1)NCc1ccc(Cl)cc1 (centres unmarked) [Example 8, N-(4-Chlorobenzyl)-2-hydroxy-6-(1H-imidazol-4-yl)-1-hexanesulfonamide]

Second part, the molecule before the results:

Row | Structure (SMILES) | Ki (Histamine H3 receptor [1]) [nM] | Kb (Histamine H3 receptor [2]) [nM] | Ki (Histamine H3 receptor [3]) [nM]
6 | O=S(=O)(CCCCCc1c[nH]cn1)CCc1ccc(Cl)cc1 [Example 26, [5-(1H-Imidazol-4-yl)pentyl] 4-chlorophenethyl sulfone] | 4.47 | 7.76 | 10.2
7 | O=S(=O)(/C=C/CCc1c[nH]cn1)NCc1ccc(Cl)cc1 [Example 3, (E)-N-(4-Chlorobenzyl)-4-(1H-imidazol-4-yl)-1-but-1-enesulfonamide] | 2.75 | 12.6 | 10.2
8 | O=S(=O)(CCCCc1c[nH]cn1)NCc1ccc(Cl)cc1 [Example 1, N-(4-Chlorobenzyl)-4-(1H-imidazol-4-yl)-1-butanesulfonamide] | 2.63 | 8.71 | 8.51
9 | O=S(=O)(/C=C/CCCc1c[nH]cn1)NCc1ccc(Cl)cc1 [Example 32, (E)-N-(4-Chlorobenzyl)-5-(1H-imidazol-4-yl)-1-pent-1-enesulfonamide] | 5.89 | 25.1 | 
10 | O=S(=O)(CCCCCc1c[nH]cn1)Cc1ccc(Cl)cc1 [Example 27, [5-(1H-Imidazol-4-yl)pentyl] 4-chlorobenzyl sulfone] | 0.661 | 14.1 | 11.7
11 | NCCCN(Cc1ccc(Cl)cc1)S(=O)(=O)CCCCCc1c[nH]cn1 [Example 35, N-(4-Chlorobenzyl)-N-(3-aminopropyl)-5-(1H-imidazol-4-yl)-1-pentanesulfonamide] | 18.2 | 151 | 
